{"source": "patent US20200093103A1", "about": "“BREEDING WATER FOR ANGUILLIFORMES AND METHOD FOR REARING ANGUILLIFORMES” (SHIN NIPPON BIOMEDICAL LABORATORIES, LTD., priority 2016, published 2020)", "test_system": "Anguilla japonica leptocephali", "test": "Induction of Anguilla japonica metamorphosis by T4 treatment in 23° C. breeding water", "assay_type": "in vivo", "set-up": "key: L: During life, no characteristics of metamorphosis seen.; Stage 1: Starting phase of metamorphosis. The rostral end is rounded, and intestinal degeneration starts.; Stage 2: Peak phase of metamorphosis. Intestinal degeneration becomes pronounced.; Stage 3: Late phase of metamorphosis.; Stage 4: Pre-glass eel stage. Almost the eel form, but the body height still remains", "excerpt": "Stage 1: Starting phase of metamorphosis. The rostral end is rounded, and intestinal degeneration starts.\nStage 2: Peak phase of metamorphosis. Intestinal degeneration becomes pronounced. In the second half, the anus reaches to near the last vertical blood vessel (VBV last).\nStage 3: Late phase of metamorphosis. The preanal length (PAL) becomes equal to or shorter than the last vertical blood vessel length (VBV last Length) (PAL VBV last Length). The body height is apparently low.\nStage 4: Pre-glass eel stage. Almost the eel form, but the body height still remains. Melanophores on the body surface or endogenous melanophores are not yet seen.\nElver stage: Juvenile stage. Food intake can be identified.\nA thyroid hormone (e.g., thyroxine (T4)) is adjusted to 50 to 100 mM in a 1- to 2-mL volume messflask. As a solvent, known solvents (water, alcohol) can be used. Ethanol is preferably used as the solvent.\nFor example, using ethanol as a solvent, T4 adjusted to 50 mM is diluted 500-fold, 5,000-fold, and 50,000-fold, respectively, and adjusted to […], 1 μM, and 100 nM. A feed can be prepared in this manner.\nArtificial seawater is added to a breeding vessel, and 1/1000 of the […] T4 is added to prepare […] T4 breeding water.\nHalf of the breeding water is replaced every two days with breeding water of the same concentration. In the case where the concentration is changed, for example, in the case of changing from 10 nM to 2 nM, 80% to the breeding water is removed, and unadjusted artificial seawater is newly added to make 1 L.\nLeptocephali visually considered to have reached a total length of 40 mm (or may be 30 mm to 50 mm, may be 35 mm to 45 mm, or may also be 35 mm or more, 40 mm or more, or 45 mm or more) are selected, anesthetized with 2-phenoxyethanol, and then photographed, and the total length of each larva is measured using an image analyzing device.\nThe larvae are placed in 10 nM T4 breeding water and then placed in an incubator set at 23° C., and breeding is started. In first one week, observation is performed every two days, and half of the 10 nM T4 breeding water is replaced each time. The average amount of thyroid hormone in the breeding water in stage 1 is 1 nM to 100 nM, for example, and may also be 3 nM to 30 nM, or 5 nM to 20 nM.\nFor larvae visually judged to have reached the second half of stage 2, the concentration of the breeding water is changed. The breeding water is diluted 5-fold or 10-fold and adjusted to 2 nM or 1 nM T4, and breeding is continued. The average amount of thyroid hormone in the breeding water in stage 2 may be, as compared with the breeding water of stage 1, diluted 2-fold to 20-fold, diluted 3 to 15-fold, or diluted 5 to 10-fold as described above. The average amount of thyroid hormone in the breeding water in stage 2 is 0.1 nM to 20 nM, for example, and may also be 0.5 nM to 10 nM, 1 nM to 5 nM, or 1 nM to 2 nM.\nFor larvae visually judged to have reached stage 3, the breeding water is quickly changed 0.2 nM T4 breeding water, which is a 5-fold dilution of 1 nM T4 breeding water, and further changed to 0.1 nM T4 breeding water on the following day. […] Also, in larvae whose anus position has not reached the last vertical hemal spine, when they are judged to be on the brink of stage 3, the concentration is changed as above. The average amount of thyroid hormone in the breeding water in stage 3 may be, as compared with the breeding water of stage 2, diluted 2-fold to 50-fold, diluted 3 to 15-fold, diluted 4 to 6-fold, or diluted 5-fold as described above. The average amount of thyroid hormone in the breeding water in stage 3 is 0.01 nM to 2 nM, for example, and may also be 0.05 nM to 1 nM, 0.1 nM to 0.5 nM, or 0.1 nM to 0.2 nM. […] That is, the concentration may be changed such that the thyroid hormone becomes undetectable in the breeding water in the course of stage 3.\nIn stage 3, breeding is continuously performed in the 0.1 nM T4 breeding water. […]", "data": [{"compound": "N[C@@H](Cc1cc(I)c(Oc2cc(I)c(O)c(I)c2)c(I)c1)C(=O)O", "note": "[T4, thyroxine]", "values": [{"measurement": "metamorphosis stage", "setting": "individual Exp. 5-2, 175 days old, total length 41.3 mm at start, c3 onward = treatment days 1,3,5,7,8,9,10,11,12,13,14,15,16,17,18, T4 (nM) 10,10,10,10,2,1,0.2,0.1,0.1,0.1,0.1,0.1, treatment day 14, T4 0.1 nM", "value": 3}, {"measurement": "metamorphosis stage", "setting": "individual Exp. 5-2, 175 days old, total length 41.3 mm at start, c3 onward = treatment days 1,3,5,7,8,9,10,11,12,13,14,15,16,17,18, T4 (nM) 10,10,10,10,2,1,0.2,0.1,0.1,0.1,0.1,0.1, treatment day 15, T4 0.1 nM", "value": 3}, {"measurement": "metamorphosis stage", "setting": "individual Exp. 5-2, 175 days old, total length 41.3 mm at start, c3 onward = treatment days 1,3,5,7,8,9,10,11,12,13,14,15,16,17,18, T4 (nM) 10,10,10,10,2,1,0.2,0.1,0.1,0.1,0.1,0.1, treatment day 16", "value": 4}, {"measurement": "metamorphosis stage", "setting": "individual Exp. 5-3, 175 days old, total length 41.7 mm at start, c3 onward = treatment days 1,3,5,7,8,9,10,11,12,13,14,15,16,17,18, T4 (nM) 10,10,10,10,2,1,0.2,0.1,0.1,0.1,0.1,0.1, treatment day 1, T4 10 nM", "value": "L"}, {"measurement": "metamorphosis stage", "setting": "individual Exp. 5-3, 175 days old, total length 41.7 mm at start, c3 onward = treatment days 1,3,5,7,8,9,10,11,12,13,14,15,16,17,18, T4 (nM) 10,10,10,10,2,1,0.2,0.1,0.1,0.1,0.1,0.1, treatment day 3, T4 10 nM", "value": "L"}, {"measurement": "metamorphosis stage", "setting": "individual Exp. 5-3, 175 days old, total length 41.7 mm at start, c3 onward = treatment days 1,3,5,7,8,9,10,11,12,13,14,15,16,17,18, T4 (nM) 10,10,10,10,2,1,0.2,0.1,0.1,0.1,0.1,0.1, treatment day 5, T4 10 nM", "value": 1}, {"measurement": "metamorphosis stage", "setting": "individual Exp. 5-3, 175 days old, total length 41.7 mm at start, c3 onward = treatment days 1,3,5,7,8,9,10,11,12,13,14,15,16,17,18, T4 (nM) 10,10,10,10,2,1,0.2,0.1,0.1,0.1,0.1,0.1, treatment day 7, T4 10 nM", "value": 2}, {"measurement": "metamorphosis stage", "setting": "individual Exp. 5-3, 175 days old, total length 41.7 mm at start, c3 onward = treatment days 1,3,5,7,8,9,10,11,12,13,14,15,16,17,18, T4 (nM) 10,10,10,10,2,1,0.2,0.1,0.1,0.1,0.1,0.1, treatment day 8, T4 2 nM", "value": 2}, {"measurement": "metamorphosis stage", "setting": "individual Exp. 5-3, 175 days old, total length 41.7 mm at start, c3 onward = treatment days 1,3,5,7,8,9,10,11,12,13,14,15,16,17,18, T4 (nM) 10,10,10,10,2,1,0.2,0.1,0.1,0.1,0.1,0.1, treatment day 9, T4 1 nM", "value": 2}, {"measurement": "metamorphosis stage", "setting": "individual Exp. 5-3, 175 days old, total length 41.7 mm at start, c3 onward = treatment days 1,3,5,7,8,9,10,11,12,13,14,15,16,17,18, T4 (nM) 10,10,10,10,2,1,0.2,0.1,0.1,0.1,0.1,0.1, treatment day 10, T4 0.2 nM", "value": 2}, {"measurement": "metamorphosis stage", "setting": "individual Exp. 5-3, 175 days old, total length 41.7 mm at start, c3 onward = treatment days 1,3,5,7,8,9,10,11,12,13,14,15,16,17,18, T4 (nM) 10,10,10,10,2,1,0.2,0.1,0.1,0.1,0.1,0.1, treatment day 11, T4 0.1 nM", "value": 3}, {"measurement": "metamorphosis stage", "setting": "individual Exp. 5-3, 175 days old, total length 41.7 mm at start, c3 onward = treatment days 1,3,5,7,8,9,10,11,12,13,14,15,16,17,18, T4 (nM) 10,10,10,10,2,1,0.2,0.1,0.1,0.1,0.1,0.1, treatment day 12, T4 0.1 nM", "value": 3}, {"measurement": "metamorphosis stage", "setting": "individual Exp. 5-3, 175 days old, total length 41.7 mm at start, c3 onward = treatment days 1,3,5,7,8,9,10,11,12,13,14,15,16,17,18, T4 (nM) 10,10,10,10,2,1,0.2,0.1,0.1,0.1,0.1,0.1, treatment day 13, T4 0.1 nM", "value": 3}, {"measurement": "metamorphosis stage", "setting": "individual Exp. 5-3, 175 days old, total length 41.7 mm at start, c3 onward = treatment days 1,3,5,7,8,9,10,11,12,13,14,15,16,17,18, T4 (nM) 10,10,10,10,2,1,0.2,0.1,0.1,0.1,0.1,0.1, treatment day 14, T4 0.1 nM", "value": 3}, {"measurement": "metamorphosis stage", "setting": "individual Exp. 5-3, 175 days old, total length 41.7 mm at start, c3 onward = treatment days 1,3,5,7,8,9,10,11,12,13,14,15,16,17,18, T4 (nM) 10,10,10,10,2,1,0.2,0.1,0.1,0.1,0.1,0.1, treatment day 15, T4 0.1 nM", "value": 3}, {"measurement": "metamorphosis stage", "setting": "individual Exp. 5-3, 175 days old, total length 41.7 mm at start, c3 onward = treatment days 1,3,5,7,8,9,10,11,12,13,14,15,16,17,18, T4 (nM) 10,10,10,10,2,1,0.2,0.1,0.1,0.1,0.1,0.1, treatment day 16", "value": 3}, {"measurement": "metamorphosis stage", "setting": "individual Exp. 5-3, 175 days old, total length 41.7 mm at start, c3 onward = treatment days 1,3,5,7,8,9,10,11,12,13,14,15,16,17,18, T4 (nM) 10,10,10,10,2,1,0.2,0.1,0.1,0.1,0.1,0.1, treatment day 17", "value": 3}, {"measurement": "metamorphosis stage", "setting": "individual Exp. 5-3, 175 days old, total length 41.7 mm at start, c3 onward = treatment days 1,3,5,7,8,9,10,11,12,13,14,15,16,17,18, T4 (nM) 10,10,10,10,2,1,0.2,0.1,0.1,0.1,0.1,0.1, treatment day 18", "value": 4}, {"measurement": "metamorphosis stage", "setting": "individual Exp. 5-6, 174 days old, total length 34.5 mm at start, c3 onward = treatment days 1,3,5,7,8,9,10,11,12,13,14,15,16,17,18,20,22, T4 (nM) 10,10,10,10,10,10,10,2,1,1,0.2,0.1,0.1,0.1,0.1,0.1,0.1, treatment day 1, T4 10 nM", "value": "L"}, {"measurement": "metamorphosis stage", "setting": "individual Exp. 5-6, 174 days old, total length 34.5 mm at start, c3 onward = treatment days 1,3,5,7,8,9,10,11,12,13,14,15,16,17,18,20,22, T4 (nM) 10,10,10,10,10,10,10,2,1,1,0.2,0.1,0.1,0.1,0.1,0.1,0.1, treatment day 3, T4 10 nM", "value": "L"}, {"measurement": "metamorphosis stage", "setting": "individual Exp. 5-6, 174 days old, total length 34.5 mm at start, c3 onward = treatment days 1,3,5,7,8,9,10,11,12,13,14,15,16,17,18,20,22, T4 (nM) 10,10,10,10,10,10,10,2,1,1,0.2,0.1,0.1,0.1,0.1,0.1,0.1, treatment day 5, T4 10 nM", "value": "L"}, {"measurement": "metamorphosis stage", "setting": "individual Exp. 5-6, 174 days old, total length 34.5 mm at start, c3 onward = treatment days 1,3,5,7,8,9,10,11,12,13,14,15,16,17,18,20,22, T4 (nM) 10,10,10,10,10,10,10,2,1,1,0.2,0.1,0.1,0.1,0.1,0.1,0.1, treatment day 7, T4 10 nM", "value": "L"}, {"measurement": "metamorphosis stage", "setting": "individual Exp. 5-6, 174 days old, total length 34.5 mm at start, c3 onward = treatment days 1,3,5,7,8,9,10,11,12,13,14,15,16,17,18,20,22, T4 (nM) 10,10,10,10,10,10,10,2,1,1,0.2,0.1,0.1,0.1,0.1,0.1,0.1, treatment day 8, T4 10 nM", "value": 2}, {"measurement": "metamorphosis stage", "setting": "individual Exp. 5-6, 174 days old, total length 34.5 mm at start, c3 onward = treatment days 1,3,5,7,8,9,10,11,12,13,14,15,16,17,18,20,22, T4 (nM) 10,10,10,10,10,10,10,2,1,1,0.2,0.1,0.1,0.1,0.1,0.1,0.1, treatment day 9, T4 10 nM", "value": 2}, {"measurement": "metamorphosis stage", "setting": "individual Exp. 5-6, 174 days old, total length 34.5 mm at start, c3 onward = treatment days 1,3,5,7,8,9,10,11,12,13,14,15,16,17,18,20,22, T4 (nM) 10,10,10,10,10,10,10,2,1,1,0.2,0.1,0.1,0.1,0.1,0.1,0.1, treatment day 10, T4 10 nM", "value": 2}]}]}
